Reference: article PMC7377239, “Cardiovascular Effects of Polychlorinated Biphenyls and Their Major Metabolites” (Environmental Health Perspectives, 2020)
Structures can show the parent of a compound that is named as a salt. Where two headings read alike, the source gives them in different places.

Test system: HUVECs
Test: Tube formation (tubulogenesis) assay in HUVECs, 18 h
Type: cell-based, human
Settings: Homo sapiens, HUVEC, 18 h
Summary of the method: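 HUVECs (passage 1–5) seeded on reduced-growth-factor basement membrane and exposed to compounds overnight at 37°C, 5% CO2, in 2× maintenance medium with 12.5 ng/mL VEGF; 0.5% DMSO vehicle. Calcein AM-stained tube networks imaged and analysed; vehicle-normalized readouts fit to four-parameter logistic, POD set at one SD of vehicle means.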

[1] = HUVECs, 0.01 µM, 0.00 µM = 100.00, read-out: huvec.mtl.18hr
[2] = HUVECs, 0.01 µM, 0.00 µM = 100.00, read-out: huvec.tlps.18hr
[3] = HUVECs, 0.01 µM, 0.00 µM = 100.00, read-out: huvec.tta.18hr
[4] = HUVECs, 0.01 µM, 0.00 µM = 100.00, read-out: huvec.ttl.18hr
[5] = HUVECs, 0.10 µM, 0.00 µM = 100.00, read-out: huvec.mtl.18hr
[6] = HUVECs, 0.10 µM, 0.00 µM = 100.00, read-out: huvec.tlps.18hr
[7] = HUVECs, 0.10 µM, 0.00 µM = 100.00, read-out: huvec.tta.18hr
[8] = HUVECs, 0.10 µM, 0.00 µM = 100.00, read-out: huvec.ttl.18hr
[9] = HUVECs, 1.00 µM, 0.00 µM = 100.00, read-out: huvec.mtl.18hr
[10] = HUVECs, 1.00 µM, 0.00 µM = 100.00, read-out: huvec.tlps.18hr
[11] = HUVECs, 1.00 µM, 0.00 µM = 100.00, read-out: huvec.tta.18hr
[12] = HUVECs, 1.00 µM, 0.00 µM = 100.00, read-out: huvec.ttl.18hr
[13] = HUVECs, 10.00 µM, 0.00 µM = 100.00, read-out: huvec.mtl.18hr
[14] = HUVECs, 10.00 µM, 0.00 µM = 100.00, read-out: huvec.tlps.18hr
[15] = HUVECs, 10.00 µM, 0.00 µM = 100.00, read-out: huvec.tta.18hr
[16] = HUVECs, 10.00 µM, 0.00 µM = 100.00, read-out: huvec.ttl.18hr
[17] = HUVECs, 100.00 µM, 0.00 µM = 100.00, read-out: huvec.mtl.18hr
[18] = HUVECs, 100.00 µM, 0.00 µM = 100.00, read-out: huvec.tlps.18hr
[19] = HUVECs, 100.00 µM, 0.00 µM = 100.00, read-out: huvec.tta.18hr
[20] = HUVECs, 100.00 µM, 0.00 µM = 100.00, read-out: huvec.ttl.18hr
[21] = HUVECs, top concentration 100.00 µM, read-out: huvec.mtl.18hr POD
[22] = HUVECs, top concentration 100.00 µM, read-out: huvec.tlps.18hr POD
[23] = HUVECs, top concentration 100.00 µM, read-out: huvec.tta.18hr POD
[24] = HUVECs, top concentration 100.00 µM, read-out: huvec.ttl.18hr POD
[25] = tube formation mtl, read-out: POD huvec.mtl.18hr
[26] = tube formation tlps, read-out: POD huvec.tlps.18hr
[27] = tube formation tta, read-out: POD huvec.tta.18hr
[28] = tube formation ttl, read-out: POD huvec.ttl.18hr

## O=S(=O)(O)Oc1cc(Cl)ccc1-c1ccccc1 [2-yl PCB 3 sulfate]
[1]
  activity at 0.01 µM: 100%
[2]
  activity at 0.01 µM: 98.8%
[3]
  activity at 0.01 µM: 108%
[4]
  activity at 0.01 µM: 108%
[5]
  activity at 0.1 µM: 99.3%
[6]
  activity at 0.1 µM: 101%
[7]
  activity at 0.1 µM: 147%
[8]
  activity at 0.1 µM: 147%
[9]
  activity at 1 µM: 97.8%
[10]
  activity at 1 µM: 116%
[11]
  activity at 1 µM: 132%
[12]
  activity at 1 µM: 128%
[13]
  activity at 10 µM: 90.4%
[14]
  activity at 10 µM: 99.7%
[15]
  activity at 10 µM: 90.3%
[16]
  activity at 10 µM: 93.2%
[17]
  activity at 100 µM: 74.5%
[18]
  activity at 100 µM: 59.6%
[19]
  activity at 100 µM: 61.5%
[20]
  activity at 100 µM: 62%
[21]
  minimal effective concentration: 10.7 µM
[22]
  minimal effective concentration: 37.4 µM
[23]
  minimal effective concentration: 100 µM
[24]
  minimal effective concentration: 100 µM

## Clc1ccc(Cl)c(-c2c(Cl)ccc(Cl)c2Cl)c1 [PCB 95, 2,2′,3,5′,6-pentachlorobiphenyl]
[25]
  minimal effective concentration: 8.29 µM
[26]
  minimal effective concentration: 100 µM
[27]
  minimal effective concentration: 100 µM
[28]
  minimal effective concentration: 100 µM

## Oc1cccc(-c2ccc(Cl)cc2)c1 [3'-OH PCB3]
[1]
  activity at 0.01 µM: 96.9%
[2]
  activity at 0.01 µM: 88.1%
[3]
  activity at 0.01 µM: 90.6%
[4]
  activity at 0.01 µM: 92%
[5]
  activity at 0.1 µM: 102%
[6]
  activity at 0.1 µM: 83.7%
[7]
  activity at 0.1 µM: 124%
[8]
  activity at 0.1 µM: 127%
[9]
  activity at 1 µM: 93%
[10]
  activity at 1 µM: 89.2%
[11]
  activity at 1 µM: 91.7%
[12]
  activity at 1 µM: 95.4%
[13]
  activity at 10 µM: 70.2%
[14]
  activity at 10 µM: 66.1%
[15]
  activity at 10 µM: 58.6%
[16]
  activity at 10 µM: 61.5%
[17]
  activity at 100 µM: 72.3%
[18]
  activity at 100 µM: 25.9%
[19]
  activity at 100 µM: 17.3%
[20]
  activity at 100 µM: 15.5%
[21]
  minimal effective concentration: 1.14 µM
[22]
  minimal effective concentration: 1.01 µM
[23]
  minimal effective concentration: 3.65 µM
[24]
  minimal effective concentration: 3.26 µM

## COc1ccc(-c2cccc(Cl)c2)cc1Cl [4-OMe-PCB 11, 4-methoxy-3,3′-dichlorobiphenyl]
[25]
  minimal effective concentration: 9.33 µM
[26]
  minimal effective concentration: 25.8 µM
[27]
  minimal effective concentration: 100 µM
[28]
  minimal effective concentration: 1.22 µM

## COc1cc(Cl)c(-c2cc(Cl)ccc2Cl)cc1Cl [4-OMe PCB52]
HUVECs tube formation, MAX 100.00, read-out: huvec.mtl.18hr POD
  minimal effective concentration: 17.1 µM
HUVECs tube formation, MAX 100.00, read-out: huvec.tlps.18hr POD
  minimal effective concentration: 14.2 µM
HUVECs tube formation, MAX 100.00, read-out: huvec.tta.18hr POD
  minimal effective concentration: 100 µM
HUVECs tube formation, MAX 100.00, read-out: huvec.ttl.18hr POD
  minimal effective concentration: 100 µM
HUVECs tube formation, concentration 0.01 µM, 0.00 µM = 100.00, read-out: huvec.mtl.18hr
  activity at 0.01 µM: 105%
HUVECs tube formation, concentration 0.01 µM, 0.00 µM = 100.00, read-out: huvec.tlps.18hr
  activity at 0.01 µM: 93.8%
HUVECs tube formation, concentration 0.01 µM, 0.00 µM = 100.00, read-out: huvec.tta.18hr
  activity at 0.01 µM: 98.5%
HUVECs tube formation, concentration 0.01 µM, 0.00 µM = 100.00, read-out: huvec.ttl.18hr
  activity at 0.01 µM: 87.4%
HUVECs tube formation, concentration 0.10 µM, 0.00 µM = 100.00, read-out: huvec.mtl.18hr
  activity at 0.1 µM: 95.6%
HUVECs tube formation, concentration 0.10 µM, 0.00 µM = 100.00, read-out: huvec.tlps.18hr
  activity at 0.1 µM: 86.8%
HUVECs tube formation, concentration 0.10 µM, 0.00 µM = 100.00, read-out: huvec.tta.18hr
  activity at 0.1 µM: 80.4%
HUVECs tube formation, concentration 0.10 µM, 0.00 µM = 100.00, read-out: huvec.ttl.18hr
  activity at 0.1 µM: 70.5%
HUVECs tube formation, concentration 1.00 µM, 0.00 µM = 100.00, read-out: huvec.mtl.18hr
  activity at 1 µM: 109%
HUVECs tube formation, concentration 1.00 µM, 0.00 µM = 100.00, read-out: huvec.tlps.18hr
  activity at 1 µM: 140%
HUVECs tube formation, concentration 1.00 µM, 0.00 µM = 100.00, read-out: huvec.tta.18hr
  activity at 1 µM: 102%
HUVECs tube formation, concentration 1.00 µM, 0.00 µM = 100.00, read-out: huvec.ttl.18hr
  activity at 1 µM: 93.9%
HUVECs tube formation, concentration 10.00 µM, 0.00 µM = 100.00, read-out: huvec.mtl.18hr
  activity at 10 µM: 94.7%
HUVECs tube formation, concentration 10.00 µM, 0.00 µM = 100.00, read-out: huvec.tlps.18hr
  activity at 10 µM: 81.4%
HUVECs tube formation, concentration 10.00 µM, 0.00 µM = 100.00, read-out: huvec.tta.18hr
  activity at 10 µM: 92.9%
HUVECs tube formation, concentration 10.00 µM, 0.00 µM = 100.00, read-out: huvec.ttl.18hr
  activity at 10 µM: 84.8%
HUVECs tube formation, concentration 100.00 µM, 0.00 µM = 100.00, read-out: huvec.mtl.18hr
  activity at 100 µM: 59.2%
HUVECs tube formation, concentration 100.00 µM, 0.00 µM = 100.00, read-out: huvec.tlps.18hr
  activity at 100 µM: 42.6%
HUVECs tube formation, concentration 100.00 µM, 0.00 µM = 100.00, read-out: huvec.tta.18hr
  activity at 100 µM: 75.1%
HUVECs tube formation, concentration 100.00 µM, 0.00 µM = 100.00, read-out: huvec.ttl.18hr
  activity at 100 µM: 67.4%

## O=S(=O)(O)Oc1ccc(-c2ccc(Cl)cc2)cc1 [4'-PCB 3 sulfate]
[25]
  minimal effective concentration: 11.2 µM
[26]
  minimal effective concentration: 100 µM
[27]
  minimal effective concentration: 25.4 µM
[28]
  minimal effective concentration: 100 µM

## O=S(=O)(O)Oc1cc(Cl)c(-c2cc(Cl)ccc2Cl)cc1Cl [4-yl PCB 52 sulfate]
[1]
  activity at 0.01 µM: 91.2%
[2]
  activity at 0.01 µM: 86.7%
[3]
  activity at 0.01 µM: 66.3%
[4]
  activity at 0.01 µM: 59.7%
[5]
  activity at 0.1 µM: 103%
[6]
  activity at 0.1 µM: 108%
[7]
  activity at 0.1 µM: 99.9%
[8]
  activity at 0.1 µM: 89.7%
[9]
  activity at 1 µM: 99%
[10]
  activity at 1 µM: 111%
[11]
  activity at 1 µM: 97.7%
[12]
  activity at 1 µM: 87.2%
[13]
  activity at 10 µM: 93.2%
[14]
  activity at 10 µM: 84.7%
[15]
  activity at 10 µM: 79.1%
[16]
  activity at 10 µM: 70.9%
[17]
  activity at 100 µM: 61.8%
[18]
  activity at 100 µM: 26.3%
[19]
  activity at 100 µM: 85.2%
[20]
  activity at 100 µM: 94.3%
[21]
  minimal effective concentration: 14.6 µM
[22]
  minimal effective concentration: 10.1 µM
[23]
  minimal effective concentration: 100 µM
[24]
  minimal effective concentration: 100 µM
